Experiment [1] in a line: Fluorine nuclear relaxation times T1 and T2 and chemical shift of 5F-BAPTA with and without zinc, in water and octanol. The experiment is classed as physicochemical. Here is the method:
All fluorine NMR spectra were collected with a 400 MHz Oxford/Varian Unity Plus spectrometer at 25° C. The nominal 90° pulse width was 7.8 μsec.
An equivalent volume (0.7 ml) n-octanol was added, and the mixture was shaken vigorously. The organic and aqueous phases were separated by pipette and placed in NMR tubes. To the octanol solution was added 0.1 ml deuterated methanol to provide an NMR lock signal.

The conditions of experiment [2]: for T2 bound / T2 free: 2 mM complexing agent, 400 MHz, 25° C. Here is the method: All fluorine NMR spectra were collected with a 400 MHz Oxford/Varian Unity Plus spectrometer at 25° C. The nominal 90° pulse width was 7.8 μsec. Transverse relaxation times were determined by the best fit of data collected using the Carr-Purcell-Meiboom-Gill sequence supplied with the spectrometer.
A 1 M solution of Ultra Pure ZnCl2 (Sigma) was prepared and diluted in a serial fashion to produce intermediate stock solutions of concentration 100 mM and 10 mM in water. A 200 mM solution of 5-T-BAPTA (Molecular Probes) was prepared and added to aliquots of either zinc solution, as appropriate, in sufficient quantity to yield a final, fixed concentration of 2 mM of the complexing agent.

Where [3] appears, read: aqueous solution of the zinc complex.
[4] abbreviates: aqueous solution without zinc, HEPES buffer, 400 MHz, 25° C.
Setting [5] is: Sample 2: ZnCl2 0.5 mM, MgCl2 1.5 mM.

Read-outs that look alike come from different tables or passages of the source.

With `O=C(O)CN(CC(=O)O)c1ccc(F)cc1OCCOc1cc(F)ccc1N(CC(=O)O)CC(=O)O` [5F-BAPTA, 1,2-bis-(2-amino-5-fluorophenoxy)ethane-N,N,N′,N′-tetraacetic acid], the “change of fluorine transverse relaxation time upon complexation with Zn^+2” value in experiment [1] is “large reduction”. For the same compound, the T1 value was found to be 0.82 ± 0.01 s in experiment [1] (setting [3]), 0.82 ± 0.01 s in experiment [1] (setting [4]) and 0.53 ± 0.01 s in experiment [1] (zinc complex in octanol solution). Further, the results for the T2 value in experiment [1] (setting [3]), in experiment [1] (setting [4]) and in experiment [1] (zinc complex in octanol) were 0.0248±0.0003, 0.080 ± 0.003 s and 0.013 ± 0.001 s, respectively.
On to `O=C(O)CN(CC(=O)O)c1ccc(C(F)(F)F)cc1OCCOc1cc(C(F)(F)F)ccc1N(CC(=O)O)CC(=O)O` [5T-BAPTA, 1,2-bis-(2-amino-5-trifluoromethylphenoxy)ethane-N,N,N′,N′-tetra acetic acid], for which the T2 bound in experiment [2] (Sample 1: ZnCl2 2.0 mM, MgCl2 1.0 mM, CaCl2 2.0 mM) came out at 0.14 ± 0.03 s; in experiment [2] (setting [5]) it was 0.265 ± 0.025 s; in experiment [2] (Sample 4: ZnCl2 3.5 mM, MgCl2 0.5 mM, CaCl2 1.0 mM) it was 0.216 ± 0.007 s. Further, the “T2 of the complex (Sample 1) relative to T2 of the free complexing agent (Sample 3)” value in experiment [2] (Sample 1 vs Sample 3) is listed as “⅕”. Further, the T2 free was found to be 0.387 ± 0.012 s in experiment [2] (setting [5]) and 0.763 ± 0.032 s in experiment [2] (Sample 3: ZnCl2 0 mM, MgCl2 1.65 mM, CaCl2 3.35 mM).

The record behind these values is patent US20060193781A1, “Magnetic resonance imaging of metal concentrations” (priority 2002, published 2006).
